pEC50: −log10 of the molar value.
Target: T1, human somatostatin receptor subtype 2 (Homo sapiens, UniProt P30874)
T1 construct: expressed in transfected cells; host or cells: CHO (Chinese hamster ovary) cells, G-418 selected
Assay: cAMP assay (functional assay for SSTR2 agonists)
Format: cell-based
Conditions: CHO cells expressing human SSTR2; intracellular cAMP with forskolin, HTRF; read-out: SSTR2a EC50
Description: Functional Assay for SSTR2 Agonists
General overview: All five SSTR subtypes are Gi coupled G-protein coupled receptors (GPCRs) that lead to decreases in intracellular cyclic AMP (cAMP) when activated by an agonist. Therefore, measurement of intracellular cAMP levels can be used to assess whether compounds of the invention are agonists of SSTR subtypes (John Kelly, Troy Stevens, W. Joseph Thompson, and Roland Seifert, Current Protocols in Pharmacology, 2005, 2.2.1-2.2). One example of an intracellular cAMP assay is described below.
One day prior to the assay, 40,000 Chinese hamster ovary (CHO) cells expressing the human somatostatin receptor subtype 2 are plated in each well of a 96-well tissue culture plate in DM-MEM growth media (Gibco) with the following additives: 10% fetal bovine serum (Gibco), 100 U/mL penicillin (Gibco), 100 ug/mL streptomycin (Gibco), 10 mM HEPES (Gibco), 1.2 mM sodium hydroxide, 0.5 mg/mL G-418 (Gibco)). The cells are cultured overnight at 37° C., 5% CO2 and 95% humidity. On the day of the assay, the media is aspirated and the cells are washed with 1× Dulbecco's phosphate buffered saline (Gibco). Next, 5 μL of assay buffer (1× Earle's Balanced Salt Solution (Gibco), 5 mM MgCl2, 10 mM HEPES, 0.1% bovine serum albumin, 0.2 mM 3-Isobutyl-1-methylxanthine (IBMX, Biomol Research Labs)) and forskolin is added. Various dilutions of the compounds of the invention are prepared in assay buffer and 5 μL of the dilutions are added to the cultured cells and incubated for 15 minutes at 37° C. […] 10 μL of lysis buffer (HRTF cAMP kit, Cisbio) containing cAMP detection and visualization antibodies are added and the assay is allowed incubate for 1-24 hours at room temperature. The intracellular cAMP concentrations are then measured using a commercially available detection kit (for example, the cAMP HTRF kit, Cisbio). The measured intracellular cAMP concentrations are plotted vs. the concentration of the compounds of the invention and the EC50 of the compounds are calculated using standard methods.

T1 sequence (P30874 whole entry): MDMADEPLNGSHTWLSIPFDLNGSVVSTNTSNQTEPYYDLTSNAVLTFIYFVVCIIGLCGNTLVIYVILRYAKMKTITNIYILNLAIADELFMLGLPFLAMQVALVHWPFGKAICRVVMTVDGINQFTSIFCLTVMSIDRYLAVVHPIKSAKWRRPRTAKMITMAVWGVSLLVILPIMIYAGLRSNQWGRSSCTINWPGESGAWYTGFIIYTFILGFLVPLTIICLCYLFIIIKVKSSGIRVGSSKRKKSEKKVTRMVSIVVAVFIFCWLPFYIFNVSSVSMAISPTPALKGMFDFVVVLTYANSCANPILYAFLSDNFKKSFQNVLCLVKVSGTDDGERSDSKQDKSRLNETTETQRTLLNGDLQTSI

SMILES | pEC50
Cc1cc(Cl)cc(N2C=Nc3cc(C)c(-c4cccc(S(C)(=O)=O)c4)cc3C2C(=O)N(C)C[C@@H]2CCCN2)c1 (stereo partly drawn) [Compound 1-46, 3-(3-chloro-5-methylphenyl)-6-(3-methanesulfonylphenyl)-N,7-dimethyl-N-[(2S)-pyrrolidin-2-ylmethyl]-3,4-dihydroquinazoline-4-carboxamide] | 6.00 to 7.00
Cc1cc(Cl)cc(N2C=Nc3cc(C)c(-c4cccc(-c5nnn[nH]5)c4)cc3C2C(=O)N(C)C[C@@H]2CCCN2)c1 (stereo partly drawn) [Compound 1-47, 3-(3-chloro-5-methylphenyl)-N,7-dimethyl-N-[(2S)-pyrrolidin-2-ylmethyl]-6-[3-(1H-1,2,3,4-tetrazol-5-yl)phenyl]-3,4-dihydroquinazoline-4-carboxamide] | > 7.00
Cc1cc(Cl)cc(N2C=Nc3cc(C)c(-c4cc(O)cc(C#N)c4)cc3C2C(=O)N(C)C[C@@H]2CCCN2)c1 (stereo partly drawn) [Compound 1-48, 3-(3-chloro-5-methylphenyl)-6-(3-cyano-5-hydroxyphenyl)-N,7-dimethyl-N-[(2S)-pyrrolidin-2-ylmethyl]-3,4-dihydroquinazoline-4-carboxamide] | > 7.00
CCOC(=O)Cc1cccc(-c2cc3c(cc2C)N=CN(c2cc(C)cc(Cl)c2)C3C(=O)N(C)C[C@@H]2CCCN2)c1 (stereo partly drawn) [Compound 1-49, ethyl 2-{3-[3-(3-chloro-5-methylphenyl)-7-methyl-4-{methyl[(2S)-pyrrolidin-2-ylmethyl]carbamoyl}-3,4-dihydroquinazolin-6-yl]phenyl}acetate] | 6.00 to 7.00
Cc1cc(Cl)cc(N2C=Nc3ccc(-c4cc(O)cc(F)c4)cc3C2C(=O)N(C)C[C@@H]2CCCN2)c1 (stereo partly drawn) [Compound 1-50, 3-(3-chloro-5-methylphenyl)-6-(3-fluoro-5-hydroxyphenyl)-N-methyl-N-[(2S)-pyrrolidin-2-ylmethyl]-3,4-dihydroquinazoline-4-carboxamide] | > 7.00
Cc1cc(C)cc(N2C=Nc3cc(C)c(-c4cccc(O)c4)cc3C2C(=O)NC[C@@H]2CCCN2)c1 (stereo partly drawn) [Compound 1-51, 3-(3,5-dimethylphenyl)-6-(3-hydroxyphenyl)-7-methyl-N-[(2S)-pyrrolidin-2-ylmethyl]-3,4-dihydroquinazoline-4-carboxamide] | 5.00 to 6.00
COc1cc(F)cc(N2C=Nc3cc(C)c(-c4cc(O)ccc4F)cc3C2C(=O)N(C)C[C@@H]2CCCN2C)c1 (stereo partly drawn) [Compound 1-52, 6-(2-fluoro-5-hydroxyphenyl)-3-(3-fluoro-5-methoxyphenyl)-N,7-dimethyl-N-{[(2S)-1-methylpyrrolidin-2-yl]methyl}-3,4-dihydroquinazoline-4-carboxamide] | > 7.00
Cc1cc(Cl)cc(N2C=Nc3cc(C)c(-c4cccc(CC(=O)O)c4)cc3C2C(=O)N(C)C[C@@H]2CCCN2)c1 (stereo partly drawn) [Compound 1-53, 2-{3-[3-(3-chloro-5-methylphenyl)-7-methyl-4-{methyl[(2S)-pyrrolidin-2-ylmethyl]carbamoyl}-3,4-dihydroquinazolin-6-yl]phenyl}acetic acid] | > 7.00
Cc1cc(F)cc(N2C=Nc3cc(C)c(-c4cc(O)cc(C#N)c4)cc3C2C(=O)N(C)C[C@@H]2CCCN2)c1 (stereo partly drawn) [Compound 1-54, 6-(3-cyano-5-hydroxyphenyl)-3-(3-fluoro-5-methylphenyl)-N,7-dimethyl-N-[(2S)-pyrrolidin-2-ylmethyl]-3,4-dihydroquinazoline-4-carboxamide] | > 7.00
Cc1cc(Cl)cc(N2C=Nc3cc(C)c(-c4cccc(O)c4)cc3C2C(=O)N(C)C[C@@H]2CC(F)(F)CN2)c1 (stereo partly drawn) [Compound 1-55, 3-(3-chloro-5-methylphenyl)-N-{[(2S)-4,4-difluoropyrrolidin-2-yl]methyl}-6-(3-hydroxyphenyl)-N,7-dimethyl-3,4-dihydroquinazoline-4-carboxamide] | > 7.00
Cc1cc(Cl)cc(N2C=Nc3cc(C)c(-c4cccc(O)c4)cc3C2C(=O)N(C)C[C@@H]2C[C@@H](F)CN2)c1 (stereo partly drawn) [Compound 1-56, 3-(3-chloro-5-methylphenyl)-N-{[(2S,4R)-4-fluoropyrrolidin-2-yl]methyl}-6-(3-hydroxyphenyl)-N,7-dimethyl-3,4-dihydroquinazoline-4-carboxamide] | > 7.00
Cc1cc(Cl)cc(N2C=Nc3cc(Cl)c(-c4cccc(O)c4)cc3C2C(=O)N(C)C[C@@H]2CCCN2)c1 (stereo partly drawn) [Compound 1-72, 7-chloro-3-(3-chloro-5-methylphenyl)-6-(3-hydroxyphenyl)-N-methyl-N-((S)-pyrrolidin-2-ylmethyl)-3,4-dihydroquinazoline-4-carboxamide] | > 7.00
Cc1cc(Cl)cc(N2C=Nc3cc(C)c(-c4cnn(C)c4)cc3C2C(=O)N(C)C[C@@H]2CCCN2)c1 (stereo partly drawn) [Compound 2-1, 3-(3-chloro-5-methylphenyl)-N,7-dimethyl-6-(1-methyl-1H-pyrazol-4-yl)-N-[(2S)-pyrrolidin-2-ylmethyl]-3,4-dihydroquinazoline-4-carboxamide] | 6.00 to 7.00
Cc1cc(Cl)cc(N2C=Nc3cc(C)c(-c4cccnc4)cc3C2C(=O)N(C)C[C@@H]2CCCN2)c1 (stereo partly drawn) [Compound 2-2, 3-(3-chloro-5-methylphenyl)-N,7-dimethyl-6-(pyridin-3-yl)-N-[(2S)-pyrrolidin-2-ylmethyl]-3,4-dihydroquinazoline-4-carboxamide] | 6.00 to 7.00
COc1ccc(Cl)c(-c2cc3c(cc2C)N=CN(c2cc(C)cc(Cl)c2)C3C(=O)N(C)C[C@@H]2CCCN2)c1 (stereo partly drawn) [Compound 2-3, 6-(2-chloro-5-methoxyphenyl)-3-(3-chloro-5-methylphenyl)-N,7-dimethyl-N-[(2S)-pyrrolidin-2-ylmethyl]-3,4-dihydroquinazoline-4-carboxamide] | > 7.00
COc1ccc(C)c(-c2cc3c(cc2C)N=CN(c2cc(C)cc(Cl)c2)C3C(=O)N(C)C[C@@H]2CCCN2)c1 (stereo partly drawn) [Compound 2-4, 3-(3-chloro-5-methylphenyl)-6-(5-methoxy-2-methylphenyl)-N,7-dimethyl-N-[(2S)-pyrrolidin-2-ylmethyl]-3,4-dihydroquinazoline-4-carboxamide] | > 7.00
COc1ccc(F)c(-c2cc3c(cc2C)N=CN(c2cc(C)cc(Cl)c2)C3C(=O)N(C)C[C@@H]2CCCN2)c1 (stereo partly drawn) [Compound 2-5, 3-(3-chloro-5-methylphenyl)-6-(2-fluoro-5-methoxyphenyl)-N,7-dimethyl-N-[(2S)-pyrrolidin-2-ylmethyl]-3,4-dihydroquinazoline-4-carboxamide] | > 7.00
Cc1cc(Cl)cc(N2C=Nc3cc(C)c(-c4cccc(NS(C)(=O)=O)c4)cc3C2C(=O)N(C)C[C@@H]2CCCN2)c1 (stereo partly drawn) [Compound 2-6, 3-(3-chloro-5-methylphenyl)-6-(3-methanesulfonamidophenyl)-N,7-dimethyl-N-[(2S)-pyrrolidin-2-ylmethyl]-3,4-dihydroquinazoline-4-carboxamide] | 6.00 to 7.00
Cc1cc(Cl)cc(N2C=Nc3cc(C)c(-c4cccc(F)c4C)cc3C2C(=O)N(C)C[C@@H]2CCCN2)c1 (stereo partly drawn) [Compound 2-7, 3-(3-chloro-5-methylphenyl)-6-(3-fluoro-2-methylphenyl)-N,7-dimethyl-N-[(2S)-pyrrolidin-2-ylmethyl]-3,4-dihydroquinazoline-4-carboxamide] | > 7.00
Cc1cc(Cl)cc(N2C=Nc3cc(C)c(-c4ccc(F)cc4C)cc3C2C(=O)N(C)C[C@@H]2CCCN2)c1 (stereo partly drawn) [Compound 2-8, 3-(3-chloro-5-methylphenyl)-6-(4-fluoro-2-methylphenyl)-N,7-dimethyl-N-[(2S)-pyrrolidin-2-ylmethyl]-3,4-dihydroquinazoline-4-carboxamide] | > 7.00
Cc1cc(Cl)cc(N2C=Nc3cc(C)c(-c4cc(F)cc(C(N)=O)c4)cc3C2C(=O)N(C)C[C@@H]2CCCN2)c1 (stereo partly drawn) [Compound 2-9, 6-(3-carbamoyl-5-fluorophenyl)-3-(3-chloro-5-methylphenyl)-N,7-dimethyl-N-[(2S)-pyrrolidin-2-ylmethyl]-3,4-dihydroquinazoline-4-carboxamide] | > 7.00
Cc1cc(Cl)cc(N2C=Nc3cc(C)c(-c4cncc(O)c4)cc3C2C(=O)N(C)C[C@@H]2CCCN2)c1 (stereo partly drawn) [Compound 2-10, 3-(3-chloro-5-methylphenyl)-6-(5-hydroxypyridin-3-yl)-N,7-dimethyl-N-[(2S)-pyrrolidin-2-ylmethyl]-3,4-dihydroquinazoline-4-carboxamide] | > 7.00
Cc1cc(Cl)cc(N2C=Nc3cc(C)c(-c4cccc(C(N)=O)n4)cc3C2C(=O)N(C)C[C@@H]2CCCN2)c1 (stereo partly drawn) [Compound 2-11, 6-(6-carbamoylpyridin-2-yl)-3-(3-chloro-5-methylphenyl)-N,7-dimethyl-N-[(2S)-pyrrolidin-2-ylmethyl]-3,4-dihydroquinazoline-4-carboxamide] | > 7.00
Cc1cc(Cl)cc(N2C=Nc3cc(C)c(-c4c(C)cccc4F)cc3C2C(=O)N(C)C[C@@H]2CCCN2)c1 (stereo partly drawn) [Compound 2-12, 3-(3-chloro-5-methylphenyl)-6-(2-fluoro-6-methylphenyl)-N,7-dimethyl-N-[(2S)-pyrrolidin-2-ylmethyl]-3,4-dihydroquinazoline-4-carboxamide] | > 7.00

— patent US9902703B2, “Somatostatin modulators and uses thereof” (Crinetics Pharmaceuticals, Inc., priority 2015, dated 2018)
